# Results: PMC10780175, “In Silico and In Vivo Pharmacokinetic Evaluation of 84-B10, a Novel Drug Candidate against Acute Kidney Injury and Chronic Kidney Disease” (Molecules, 2023)
# Like-named read-outs stand apart in the source and are kept apart here.
# Columns and labels:
# [1] = Pharmacokinetic study in rats after intraperitoneal injection (UHPLC-MS/MS); format: in vivo, Sprague Dawley rats; conditions: for Cmax / AUC(0-inf) / AUC(0-t) / Tmax / half-life: ip
# Protocol: (§1) The validated UPLC-MS/MS method was successfully applied to the pharmacokinetic study and tissue distribution in rats after an intraperitoneal injection of 84-B10 (0.36 mg/kg). […] Two hours later, the plasma concentration tended to flatten out, with a concentration of approximately 10 ng/mL. AUC0–t and AUC0–∞ were 269 and 278 h*ng/mL, respectively. After an intraperitoneal administration, 84-B10 could be detected in different tissues, indicating a wide distribution (Figure 4). The compound rapidly distributed and reached maximum concentration at 0.033 h for most tissues. […] In most tissues, 84-B10 was eliminated at 8 h.
# 84-B10 was determined and quantified by ExionLC system coupled with SCIEX 4500 triple quadrupole mass spectrometers (SCIEX, Framingham, MA, USA). A phenyl HPLC column (50 × 2.1 mm, 3 μm) (YMC, Kyoto, Japan) was used for separation. Methanol was selected as the organic phase as it could better reflect the π-π selectivity between benzene and the chromatographic column. An amount of 5 mM ammonium formate was added into water to adjust the dissociation of 84-B10 and to improve the chromatographic peak. The flow rate was 0.3 mL/min with gradient elution (Table 8).
# (§2) After one week of adaptive feeding, pharmacokinetic experiments were conducted. 84-B10 (0.36 mg/kg) solution was injected and blood was collected into tubes containing heparin sodium at 0.033, 0.083, 0.25, 0.5, 1, 2, 4, 6 and 8 h after administration. Blood was centrifuged at 8000 rpm for 5 min to obtain the plasma. The tissue was accurately weighed and ground with pure water (w:v, 1:5) to obtain homogenate. An amount of 50 µL of biological matrix was precipitated with 200 μL of methanol containing IS (Ginkgolide J, 2 μg/mL). After vortexing for 5 min, the samples were centrifuged at 12,000 rpm for 5 min and the supernatant was taken for injection.
# [2] = Tissue distribution in rats after intraperitoneal injection; format: in vivo, Sprague Dawley rats; conditions: intraperitoneal 0.36 mg/kg
# Protocol: as §1, §2
# [3] = Stability of 84-B10 in rat plasma under different storage conditions; format: in vitro ADME; conditions: n = 6
# Protocol: The method was validated according to the Bioanalytical Method Validation Guidance for Industry issued by Food and Drug Administration of USA in 2018. In short, blank plasma from six different rats was collected and spiked with or without LLOQ working solutions to evaluate the sensitivity. The linear least square method was used to fit the standard curve, and the weighting coefficient was 1/x^2. The precision and accuracy were evaluated by analyzing three different concentrations of quality control samples in three consecutive days. Blank plasma was first precipitated with methanol and then spiked with QC working solutions into supernatant. The peak area was compared with QC samples to estimate the extraction recovery. Alternatively, blank plasma was replaced with ultrapure water and mixed with QC working solutions. The matrix effect was then evaluated. For stability evaluation, different concentrations of QC samples were stored at room temperature for 2 h, frozen–thawed for three cycles, or stored in an auto-sampler (extracted samples, 4 °C) for 24 h and then analyzed.
# [4] = parameters: method as in PMID 36629048; conditions: mice, intraperitoneal 5 mg/kg, plasma, non-compartmental WinNonlin 7.0 on concentrations from previous publication; cited from earlier work
# [5] = target: Lon protease 1 (LONP1); parameters: method as in PMID 36629048; conditions: cited from earlier work
# [6] = system: LonP1; parameters: method as in PMID 36629048; conditions: cited from earlier work
# [7] = system: cisplatin-induced acute kidney injury; parameters: method as in PMID 36403736, PMID 36629048; conditions: mice, 5 mg/kg; cited from earlier work
# [8] = system: renal fibrosis induced by unilateral ureteral obstruction (UUO) or unilateral ischemia reperfusion injury (UIRI); parameters: method as in PMID 36403736, PMID 36629048; conditions: mice, dose of 0.5–7.5 mg/kg; cited from earlier work
# [9] = Sprague Dawley, rat, plasma, single intraperitoneal injection 0.36 mg/kg, female, mean ± SD
# [10] = Sprague Dawley, rat, plasma, single intraperitoneal injection 0.36 mg/kg, male, mean ± SD
# [11] = both sexes, Sprague Dawley, rat, plasma, single intraperitoneal injection 0.36 mg/kg, total (male and female), mean ± SD
# [12] = extracted rat plasma samples, autosampler 4 °C for 24 h, spiked 3 ng/mL
# [13] = extracted rat plasma samples, autosampler 4 °C for 24 h, spiked 300 ng/mL
# [14] = extracted rat plasma samples, autosampler 4 °C for 24 h, spiked 750 ng/mL
# [15] = rat plasma, room temperature for 2 h, spiked 3 ng/mL
# [16] = rat plasma, room temperature for 2 h, spiked 300 ng/mL
# [17] = rat plasma, room temperature for 2 h, spiked 750 ng/mL
# [18] = rat plasma, three freeze–thaw cycles, spiked 3 ng/mL
# [19] = rat plasma, three freeze–thaw cycles, spiked 300 ng/mL
# [20] = rat plasma, three freeze–thaw cycles, spiked 750 ng/mL
smiles,measurement,setting,value
"COc1ccc(Oc2ccc(C(F)(F)F)cc2NC(=O)CC(CC(=O)O)c2ccccc2)cc1 (stereo not shown) [84-B10, 5-[[2-(4-methoxyphenoxy)-5-(trifluoromethyl)phenyl]amino]-5-oxo-3-phenylpentanoic acid]",Cmax,"[1]; Sprague Dawley, rat, intraperitoneal 0.36 mg/kg, plasma, non-compartmental WinNonlin 7.0, read-out: Cmax, observed",257 ng/mL
same,concentration at 2 h,"[1]; Sprague Dawley, rat, plasma, intraperitoneal 0.36 mg/kg, 2 h after injection, curve flattens out, read-out: plasma concentration two hours later",~10 ng/mL
same,AUC(0-inf),[1]; [9],241 ± 29 ng·h/mL
same,AUC(0-t),[1]; [9],233 ± 27 ng·h/mL
same,Tmax,[1]; [9],8.4 ± 6 min
same,half-life,[1]; [9],25.8 ± 2.4 min
same,Cmax,"[1]; Sprague Dawley, rat, plasma, single intraperitoneal injection 0.36 mg/kg, female, mean ± SD, read-out: Cmax",231 ± 2.08 ng/mL
same,AUC(0-inf),[1]; [10],315 ± 31 ng·h/mL
same,AUC(0-t),[1]; [10],305 ± 30.2 ng·h/mL
same,Tmax,[1]; [10],11.4 ± 6 min
same,half-life,[1]; [10],27 ± 1.2 min
same,Cmax,"[1]; Sprague Dawley, rat, plasma, single intraperitoneal injection 0.36 mg/kg, male, mean ± SD, read-out: Cmax",284 ± 48.2 ng/mL
same,AUC(0-inf),[1]; [11],278 ± 48.9 ng·h/mL
same,AUC(0-t),[1]; [11],269 ± 47.3 ng·h/mL
same,Tmax,[1]; [11],10.2 ± 5.4 min
same,half-life,[1]; [11],26.4 ± 1.8 min
same,Cmax,"[1]; both sexes, Sprague Dawley, rat, plasma, single intraperitoneal injection 0.36 mg/kg, total (male and female), mean ± SD, read-out: Cmax",257 ± 42.4 ng/mL
same,gender difference in the absorption,"[1]; intraperitoneal 0.36 mg/kg, male vs female",no significant gender difference
same,"Cl, observed","[1]; intraperitoneal 0.36 mg/kg, plasma, non-compartmental WinNonlin 7.0",22.2 mL/min/kg
same,CL,"[1]; single intraperitoneal injection 0.36 mg/kg, female, mean ± SD",25.15 ± 2.95 mL/min/kg
same,CL,"[1]; single intraperitoneal injection 0.36 mg/kg, male, mean ± SD",19.15 ± 1.98 mL/min/kg
same,CL,"[1]; single intraperitoneal injection 0.36 mg/kg, total (male and female), mean ± SD",22.15 ± 3.98 mL/min/kg
same,Tmax,"[2]; Sprague Dawley, rat, most tissues (tissue homogenate), ip, most tissues, read-out: time of maximum concentration in most tissues",1.98 min
same,tissues with highest concentration,[2],"most concentrated in the intestine, stomach, liver, kidney and lung"
same,time at which eliminated in most tissues,[2]; most tissues,8 h
same,Measured Concentrations,[3]; [12],3.15 ± 0.11 ng/mL
same,RE,[3]; [12],5.00%
same,Measured Concentrations,[3]; [13],299 ± 10 ng/mL
same,RE,[3]; [13],−0.33%
same,Measured Concentrations,[3]; [14],710 ± 27 ng/mL
same,RE,[3]; [14],−5.38%
same,Measured Concentrations,[3]; [15],2.96 ± 0.10 ng/mL
same,RE,[3]; [15],−1.50%
same,Measured Concentrations,[3]; [16],278 ± 3 ng/mL
same,RE,[3]; [16],−7.44%
same,Measured Concentrations,[3]; [17],670 ± 15 ng/mL
same,RE,[3]; [17],−10.7%
same,Measured Concentrations,[3]; [18],2.87 ± 0.29 ng/mL
same,RE,[3]; [18],−4.22%
same,Measured Concentrations,[3]; [19],287 ± 20 ng/mL
same,RE,[3]; [19],−4.28%
same,Measured Concentrations,[3]; [20],684 ± 18 ng/mL
same,RE,[3]; [20],−8.87%
same,"AUC0→t, observed",[4],1327 ng·h/mL
same,"Cl, observed",[4],56.8 mL/min/kg
same,"Cmax, observed",[4],2038 ng/mL
same,"Vd, observed",[4],11.20 L/kg
same,Kd,"[5]; previous research, read-out: binding affinity",312 nM
same,binding affinity,[5]; same value expressed in ng/mL,147 ng/mL
same,LonP1 activation,[6],new LonP1 activator
same,therapeutic effect on cisplatin-induced acute kidney injury,[7],significant therapeutic effect
same,effect on renal fibrosis induced by UUO or UIRI,[8],dose-dependently alleviated renal fibrosis
